This note sets out measurements from patent publication US12662479B2 (Foghorn Therapeutics Inc., priority 2020, dated 2026).

The structures appear in SMILES notation. Some results are limits rather than exact numbers.

Experiment [1] concerns the target T1, HiBit-BRG1 fusion protein (Homo sapiens, UniProt P51532).
T1 construct: expressed in transfected cells
As to the kind of experiment: HiBiT-BRG1 cell-based degradation assay (Nano-Glo HiBiT Lytic Detection, 24 h). The following applies: HeLa cells expressing HiBit-BRG1 and LgBit; for DC50: read-out: BRG1 HiBit Degradation IC50; for Dmax: HeLa, top dose 30 μM, read-out: BRG1 HiBit Degradation Maximum measured. A digest of the protocol:
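Stable HeLa line expressing HiBiT-BRG1 and LgBiT, seeded at 5000 cells/well; luminescence read after lytic Nano-Glo HiBiT reagent and 10 min shaking at RT. % degradation normalised between DMSO (high control) and 2 μM reference BRM/BRG1 degrader (low control).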
In general terms: HiBiT is a short tag that completes a luciferase, so light tracks the accessible tagged protein.

A further experiment has as its target T2, HiBit-BRM fusion protein (Homo sapiens, UniProt P51531).
T2 construct: expressed in transfected cells
The experiment can be described thus: HiBiT-BRM cell-based degradation assay (Nano-Glo HiBiT Lytic Detection, 24 h). The following applies: HeLa cells expressing HiBiT-BRM; for DC50: read-out: BRM HiBit Degradation IC50; for BRM HiBit Degradation Maximum measured: top dose 30 μM. A digest of the protocol: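 HeLa cells stably expressing HiBiT-BRM were treated for 24 h with compounds (10-point 3-fold dilutions, 30 μM final top dose, in duplicate). HiBiT was detected by lytic LgBiT complementation luminescence. % degradation was normalized to DMSO (high control) and 2 μM of a reference BRM/BRG1 degrader (low control).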

T1 sequence (P51532 whole entry, the tested form may be a part): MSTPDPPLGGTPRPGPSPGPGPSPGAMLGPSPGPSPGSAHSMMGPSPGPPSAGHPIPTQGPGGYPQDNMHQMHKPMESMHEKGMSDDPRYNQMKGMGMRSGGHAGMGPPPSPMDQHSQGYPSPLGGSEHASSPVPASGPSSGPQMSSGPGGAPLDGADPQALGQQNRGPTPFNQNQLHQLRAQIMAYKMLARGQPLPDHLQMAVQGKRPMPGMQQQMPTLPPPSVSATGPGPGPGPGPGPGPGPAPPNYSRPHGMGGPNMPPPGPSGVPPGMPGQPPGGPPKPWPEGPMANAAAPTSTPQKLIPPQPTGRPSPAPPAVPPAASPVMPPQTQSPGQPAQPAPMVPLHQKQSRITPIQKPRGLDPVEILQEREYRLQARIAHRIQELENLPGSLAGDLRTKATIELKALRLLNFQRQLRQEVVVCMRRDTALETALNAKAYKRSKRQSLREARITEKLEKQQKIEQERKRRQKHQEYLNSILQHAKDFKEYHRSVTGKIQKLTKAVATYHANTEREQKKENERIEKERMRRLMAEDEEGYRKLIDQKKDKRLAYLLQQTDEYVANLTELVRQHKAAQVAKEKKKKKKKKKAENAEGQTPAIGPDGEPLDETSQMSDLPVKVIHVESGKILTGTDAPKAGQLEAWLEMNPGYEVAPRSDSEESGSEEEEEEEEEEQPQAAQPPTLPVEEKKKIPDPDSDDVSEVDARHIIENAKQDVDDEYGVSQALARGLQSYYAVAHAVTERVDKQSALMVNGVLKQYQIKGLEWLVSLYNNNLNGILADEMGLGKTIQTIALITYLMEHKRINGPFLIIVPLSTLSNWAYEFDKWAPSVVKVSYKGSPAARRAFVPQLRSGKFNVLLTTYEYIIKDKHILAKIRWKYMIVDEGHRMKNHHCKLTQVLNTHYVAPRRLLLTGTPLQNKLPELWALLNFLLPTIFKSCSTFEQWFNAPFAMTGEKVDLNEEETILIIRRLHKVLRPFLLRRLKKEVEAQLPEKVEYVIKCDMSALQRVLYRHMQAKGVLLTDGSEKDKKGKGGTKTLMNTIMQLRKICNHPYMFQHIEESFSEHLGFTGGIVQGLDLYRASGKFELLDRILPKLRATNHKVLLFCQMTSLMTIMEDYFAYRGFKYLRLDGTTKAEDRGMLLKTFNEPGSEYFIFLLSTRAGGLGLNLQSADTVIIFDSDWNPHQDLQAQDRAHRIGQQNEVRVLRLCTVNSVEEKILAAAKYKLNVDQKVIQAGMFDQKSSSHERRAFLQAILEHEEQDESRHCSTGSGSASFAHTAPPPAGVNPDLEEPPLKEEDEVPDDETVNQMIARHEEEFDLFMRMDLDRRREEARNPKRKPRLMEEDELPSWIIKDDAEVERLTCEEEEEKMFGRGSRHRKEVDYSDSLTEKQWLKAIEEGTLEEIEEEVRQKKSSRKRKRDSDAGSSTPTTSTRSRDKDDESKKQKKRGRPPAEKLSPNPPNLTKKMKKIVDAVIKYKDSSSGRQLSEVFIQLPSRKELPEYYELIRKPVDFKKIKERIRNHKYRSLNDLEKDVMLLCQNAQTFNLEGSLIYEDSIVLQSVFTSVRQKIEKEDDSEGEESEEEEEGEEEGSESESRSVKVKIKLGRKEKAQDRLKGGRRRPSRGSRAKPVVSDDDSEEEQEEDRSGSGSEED
T2 sequence (P51531 whole entry, the tested form may be a part): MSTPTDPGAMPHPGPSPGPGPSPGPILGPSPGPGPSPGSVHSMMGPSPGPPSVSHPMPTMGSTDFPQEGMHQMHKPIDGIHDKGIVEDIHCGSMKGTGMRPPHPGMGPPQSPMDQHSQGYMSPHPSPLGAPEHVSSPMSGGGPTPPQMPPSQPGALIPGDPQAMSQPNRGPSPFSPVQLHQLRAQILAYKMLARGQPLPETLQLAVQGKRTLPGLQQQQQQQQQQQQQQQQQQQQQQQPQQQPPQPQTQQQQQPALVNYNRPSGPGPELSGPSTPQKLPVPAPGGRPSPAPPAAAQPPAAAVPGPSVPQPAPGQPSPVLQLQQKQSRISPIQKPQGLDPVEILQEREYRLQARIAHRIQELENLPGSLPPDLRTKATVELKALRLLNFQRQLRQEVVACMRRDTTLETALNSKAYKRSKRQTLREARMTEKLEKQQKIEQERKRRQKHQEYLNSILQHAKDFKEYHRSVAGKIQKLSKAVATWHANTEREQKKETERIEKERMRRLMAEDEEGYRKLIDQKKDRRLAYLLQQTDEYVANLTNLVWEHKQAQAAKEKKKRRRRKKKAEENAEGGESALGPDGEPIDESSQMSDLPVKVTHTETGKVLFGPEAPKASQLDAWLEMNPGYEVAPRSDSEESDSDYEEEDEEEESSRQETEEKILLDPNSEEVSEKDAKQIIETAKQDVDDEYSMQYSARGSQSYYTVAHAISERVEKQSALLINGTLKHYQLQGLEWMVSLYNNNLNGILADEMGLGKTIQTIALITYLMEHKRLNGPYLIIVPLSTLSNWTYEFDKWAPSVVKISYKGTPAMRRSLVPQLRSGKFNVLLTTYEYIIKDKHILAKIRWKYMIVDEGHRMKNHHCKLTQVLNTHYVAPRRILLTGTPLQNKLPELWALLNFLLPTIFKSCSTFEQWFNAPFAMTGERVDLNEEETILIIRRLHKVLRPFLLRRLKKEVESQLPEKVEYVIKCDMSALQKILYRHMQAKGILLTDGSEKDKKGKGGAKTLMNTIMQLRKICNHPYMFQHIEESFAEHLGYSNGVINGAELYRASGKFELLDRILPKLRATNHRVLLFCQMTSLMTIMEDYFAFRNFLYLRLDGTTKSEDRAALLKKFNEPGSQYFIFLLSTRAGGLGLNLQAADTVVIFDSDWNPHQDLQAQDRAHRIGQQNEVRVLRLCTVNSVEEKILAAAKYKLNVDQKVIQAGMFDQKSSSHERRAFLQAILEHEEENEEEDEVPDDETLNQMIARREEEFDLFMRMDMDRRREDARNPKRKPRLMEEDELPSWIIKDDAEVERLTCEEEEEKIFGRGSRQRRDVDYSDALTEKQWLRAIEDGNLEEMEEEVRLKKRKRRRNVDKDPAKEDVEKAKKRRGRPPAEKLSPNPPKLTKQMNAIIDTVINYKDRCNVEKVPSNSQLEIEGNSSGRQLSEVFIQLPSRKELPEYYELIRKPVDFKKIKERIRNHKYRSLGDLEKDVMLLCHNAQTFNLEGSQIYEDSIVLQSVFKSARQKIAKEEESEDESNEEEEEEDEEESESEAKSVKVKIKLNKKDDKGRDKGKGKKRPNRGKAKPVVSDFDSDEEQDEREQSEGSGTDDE

Take `Cc1ncsc1-c1ccc(CNC(=O)[C@@H]2C[C@@H](O)CN2C(=O)[C@@H](NC(=O)CCCCCC(=O)N2CCN(c3cc(-c4cccc(-c5csc(NC(=O)CNC(=O)c6ccn(S(C)(=O)=O)c6)n5)c4)ccn3)CC2)C(C)(C)C)cc1` [Compound 86, N-(2-((4-(3-(2-(4-(7-(((S)-1-((2S,4R)-4-hydroxy-2-((4-(4-methylthiazol-5-yl)benzyl)carbamoyl)pyrrolidin-1-yl)-3,3-dimethyl-1-oxobutan-2-yl)amino)-7-oxoheptanoyl)piperazin-1-yl)pyridin-4-yl)phenyl)thiazol-2-yl)amino)-2-oxoethyl)-1-(methylsulfonyl)-1H-pyrrole-3-carboxamide]: in experiment [1], the DC50 was in the range of 0.1 to 1 µM and the Dmax was in the range of 50 to 75%. Besides, at HiBit-BRM fusion protein, the DC50 is 0.1 to 1 µM; the “BRM HiBit Degradation Maximum measured” value was “B (‘B’ = Maximum degradation ≥50% and ≤75%)”.

As to `Cc1ncsc1-c1ccc(CNC(=O)[C@@H]2C[C@@H](O)CN2C(=O)[C@@H](NC(=O)CCCCCNC(=O)CN(C)c2cc(-c3cccc(-c4csc(NC(=O)CNC(=O)c5ccn(S(C)(=O)=O)c5)n4)c3)ccn2)C(C)(C)C)cc1` [Compound 87], in experiment [1], the DC50 is above 10 µM and the Dmax was below 50%. Further, on HiBit-BRM fusion protein, the DC50 was above 10 µM and the “BRM HiBit Degradation Maximum measured” value is reported as “C (‘C’ = Maximum degradation <50%)”.

Regarding `Cc1ncsc1-c1ccc(CNC(=O)[C@@H]2C[C@@H](O)CN2C(=O)[C@@H](NC(=O)CCCCCCCNC(=O)CN(C)c2cc(-c3cccc(-c4csc(NC(=O)CNC(=O)c5ccn(S(C)(=O)=O)c5)n4)c3)ccn2)C(C)(C)C)cc1` [Compound 88], in experiment [1], the DC50 was below 0.1 µM and the Dmax fell in the range of 50 to 75%. Further, at HiBit-BRM fusion protein, the DC50 was below 0.1 µM; the “BRM HiBit Degradation Maximum measured” value is “B (‘B’ = Maximum degradation ≥50% and ≤75%)”.

Regarding `Cc1ncsc1-c1ccc(CNC(=O)[C@@H]2CC(O)CN2C(=O)[C@@H](NC(=O)COCCOCCOCCNC(=O)CN(C)c2cc(-c3cccc(-c4csc(NC(=O)CNC(=O)c5ccn(S(C)(=O)=O)c5)n4)c3)ccn2)C(C)(C)C)cc1` (some centres unmarked) [Compound 89], in experiment [1], the DC50 is above 10 µM and the Dmax is below 50%. Moreover, at HiBit-BRM fusion protein, the DC50 was above 10 µM and the “BRM HiBit Degradation Maximum measured” value was “C (‘C’ = Maximum degradation <50%)”.

On to `Cc1c(C(=O)NCC(=O)Nc2nc(-c3cccc(-c4ccnc(N(C)CC(=O)NCCOCCOCCNc5cccc6c5C(=O)N(C5CCC(=O)NC5=O)C6=O)c4)c3)cs2)cn(S(=O)(=O)C(C)C)c1C` (centres unmarked) [Compound 90, N-[2-[[4-[3-[2-[[2-[2-[2-[2-[[2-(2,6-dioxo-3-piperidyl)-1,3-dioxo-isoindolin-4-yl]amino]ethoxy]ethoxy]ethylamino]-2-oxo-ethyl]-methyl-amino]-4-pyridyl]phenyl]thiazol-2-yl]amino]-2-oxo-ethyl]-1-isopropylsulfonyl-4,5-dimethyl-pyrrole-3-carboxamide], for which, in experiment [1], the DC50 is above 10 µM and the Dmax was below 50%. Also, on HiBit-BRM fusion protein, the DC50 is above 10 µM and the “BRM HiBit Degradation Maximum measured” value is “C (‘C’ = Maximum degradation <50%)”.

In the case of `Cc1c(C(=O)NCC(=O)Nc2nc(-c3cccc(-c4ccnc(N(C)CC(=O)NCCCCCNc5cccc6c5C(=O)N(C5CCC(=O)NC5=O)C6=O)c4)c3)cs2)cn(S(=O)(=O)C(C)C)c1C` (centres unmarked) [Compound 91, N-[2-[[4-[3-[2-[[2-[5-[[2-(2,6-dioxo-3-piperidyl)-1,3-dioxo-isoindolin-4-yl]amino]pentylamino]-2-oxo-ethyl]-methyl-amino]-4-pyridyl]phenyl]thiazol-2-yl]amino]-2-oxo-ethyl]-1-isopropylsulfonyl-4,5-dimethyl-pyrrole-3-carboxamide], in experiment [1], the DC50 is above 10 µM and the Dmax was below 50%. Also, at HiBit-BRM fusion protein, the DC50 was above 10 µM and the “BRM HiBit Degradation Maximum measured” value is listed as “C (‘C’ = Maximum degradation <50%)”.

`CN(CC(=O)NCCCCCCCCNc1ccc2c(c1)C(=O)N(C1CCC(=O)NC1=O)C2=O)c1cc(-c2cccc(-c3csc(NC(=O)CNC(=O)c4ccn(S(C)(=O)=O)c4)n3)c2)ccn1` (centres unmarked) [Compound 92]: in experiment [1], the DC50 is above 10 µM and the Dmax was below 50%. At HiBit-BRM fusion protein, the DC50 was above 10 µM and the “BRM HiBit Degradation Maximum measured” value was “C (‘C’ = Maximum degradation <50%)”.

Consider `CN(CC(=O)NCCOCCOCCNc1ccc2c(c1)C(=O)N(C1CCC(=O)NC1=O)C2=O)c1cc(-c2cccc(-c3csc(NC(=O)CNC(=O)c4ccn(S(C)(=O)=O)c4)n3)c2)ccn1` (centres unmarked) [Compound 93], for which, in experiment [1], the DC50 was above 10 µM and the Dmax is below 50%. On HiBit-BRM fusion protein, the DC50 was above 10 µM and the “BRM HiBit Degradation Maximum measured” value was “C (‘C’ = Maximum degradation <50%)”.

In the case of `Cc1ncsc1-c1ccc(CNC(=O)[C@@H]2C[C@@H](O)CN2C(=O)[C@@H](NC(=O)COCCOCCNC(=O)CN(C)c2cc(-c3cccc(-c4csc(NC(=O)CNC(=O)c5ccn(S(C)(=O)=O)c5)n4)c3)ccn2)C(C)(C)C)cc1` [Compound 94, N-(2-((4-(3-(2-(((S)-13-((2S,4R)-4-hydroxy-2-((4-(4-methylthiazol-5-yl)benzyl)carbamoyl)pyrrolidine-1-carbonyl)-14,14-dimethyl-2,11-dioxo-6,9-dioxa-3,12-diazapentadecyl)(methyl)amino)-pyridin-4-yl)phenyl)thiazol-2-yl)amino)-2-oxoethyl)-1-(methylsulfonyl)-1H-pyrrole-3-carboxamide], in experiment [1], the DC50 is above 10 µM and the Dmax is below 50%. In addition, on HiBit-BRM fusion protein, the DC50 is above 10 µM and the “BRM HiBit Degradation Maximum measured” value is on record as “C (‘C’ = Maximum degradation <50%)”.

Consider `CN(CCNC(=O)C1(c2cc(-c3cccc(-c4csc(NC(=O)CNC(=O)c5ccn(S(C)(=O)=O)c5)n4)c3)ccn2)CC1)CCNc1cccc2c1C(=O)N(C1CCC(=O)NC1=O)C2=O` (centres unmarked) [Compound 97, N-[2-[[4-[3-[2-[1-[2-[2-[[2-(2,6-dioxo-3-piperidyl)-1,3-dioxoisoindolin-4-yl]amino]ethyl-methyl-amino]ethylcarbamoyl]cyclopropyl]-4-pyridyl]phenyl]thiazol-2-yl]amino]-2-oxo-ethyl]-1-methylsulfonyl-pyrrole-3-carboxamide], for which, in experiment [1], the DC50 is above 10 µM and the Dmax was below 50%. On HiBit-BRM fusion protein, the DC50 was above 10 µM and the “BRM HiBit Degradation Maximum measured” value is listed as “C (‘C’ = Maximum degradation <50%)”.

Turning to `Cc1ncsc1-c1ccc(CNC(=O)[C@@H]2C[C@@H](O)CN2C(=O)[C@@H](NC(=O)CCCCCCCCCNC(=O)C2(c3cc(-c4cccc(-c5csc(NC(=O)CNC(=O)c6ccn(S(C)(=O)=O)c6)n5)c4)ccn3)CC2)C(C)(C)C)cc1` [Compound 98, N-(2-((4-(3-(2-(1-((10-(((S)-1-((2S,4R)-4-hydroxy-2-((4-(4-methylthiazol-5-yl)benzyl)carbamoyl)pyrrolidin-1-yl)-3,3-dimethyl-1-oxobutan-2-yl)amino)-10-oxodecyl)carbamoyl)cyclopropyl)-pyridin-4-yl)phenyl)thiazol-2-yl)amino)-2-oxoethyl)-1-(methylsulfonyl)-1H-pyrrole-3-carboxamide], in experiment [1], the DC50 is below 0.1 µM and the Dmax is above 75%. For the same molecule, on HiBit-BRM fusion protein, the DC50 was below 0.1 µM and the “BRM HiBit Degradation Maximum measured” value is on record as “A (‘A’ = Maximum degradation >75%)”.

In the case of `Cc1ncsc1-c1ccc(CNC(=O)[C@@H]2C[C@@H](O)CN2C(=O)[C@@H](NC(=O)CCCCCCCNC(=O)C2(c3cc(-c4cccc(-c5csc(NC(=O)CNC(=O)c6ccn(S(C)(=O)=O)c6)n5)c4)ccn3)CC2)C(C)(C)C)cc1` [Compound 99, N-(2-((4-(3-(2-(1-((8-(((S)-1-((2S,4R)-4-hydroxy-2-((4-(4-methylthiazol-5-yl)benzyl)carbamoyl)pyrrolidin-1-yl)-3,3-dimethyl-1-oxobutan-2-yl)amino)-8-oxooctyl)carbamoyl)cyclopropyl)-pyridin-4-yl)phenyl)thiazol-2-yl)amino)-2-oxoethyl)-1-(methylsulfonyl)-1H-pyrrole-3-carboxamide], in experiment [1], the DC50 was below 0.1 µM and the Dmax is above 75%. Moreover, at HiBit-BRM fusion protein, the DC50 is below 0.1 µM and the “BRM HiBit Degradation Maximum measured” value is recorded as “A (‘A’ = Maximum degradation >75%)”.

For `Cc1ncsc1-c1ccc(CNC(=O)[C@@H]2C[C@@H](O)CN2C(=O)[C@@H](NC(=O)CCCCCNC(=O)C2(c3cc(-c4cccc(-c5csc(NC(=O)CNC(=O)c6ccn(S(C)(=O)=O)c6)n5)c4)ccn3)CC2)C(C)(C)C)cc1` [Compound 100, N-(2-((4-(3-(2-(1-((6-(((S)-1-((2S,4R)-4-hydroxy-2-((4-(4-methylthiazol-5-yl)benzyl)carbamoyl)pyrrolidin-1-yl)-3,3-dimethyl-1-oxobutan-2-yl)amino)-6-oxohexyl)carbamoyl)cyclopropyl)-pyridin-4-yl)phenyl)thiazol-2-yl)amino)-2-oxoethyl)-1-(methylsulfonyl)-1H-pyrrole-3-carboxamide], in experiment [1], the DC50 was below 0.1 µM and the Dmax is above 75%. On HiBit-BRM fusion protein, the DC50 is 0.1 to 1 µM and the “BRM HiBit Degradation Maximum measured” value is reported as “A (‘A’ = Maximum degradation >75%)”.

Take `CS(=O)(=O)n1ccc(C(=O)NCC(=O)Nc2nc(-c3cccc(-c4ccnc(C5(C(=O)NCCOCCOCCNc6ccc7c(c6)C(=O)N(C6CCC(=O)NC6=O)C7=O)CC5)c4)c3)cs2)c1` (centres unmarked) [Compound 101, N-[2-[[4-[3-[2-[1-[2-[2-[2-[[2-(2,6-dioxo-3-piperidyl)-1,3-dioxo-isoindolin-5-yl]amino]ethoxy]ethoxy]ethylcarbamoyl]-cyclopropyl]-4-pyridyl]phenyl]thiazol-2-yl]amino]-2-oxo-ethyl]-1-methylsulfonylpyrrole-3-carboxamide]: in experiment [1], the DC50 was above 10 µM and the Dmax was below 50%. Moreover, at HiBit-BRM fusion protein, the DC50 is above 10 µM and the “BRM HiBit Degradation Maximum measured” value was “C (‘C’ = Maximum degradation <50%)”.
